These results are taken from patent US20240358843A1, “LIGAND-DRUG CONJUGATE AND USE THEREOF” (priority 2021, published 2024).

As usually defined, the IC50 is the concentration at which inhibition is half-maximal.

Series [1] can be described thus: Safety evaluation in ICR mice. Type of series: in vivo. The procedure: Experiment purpose: Safety evaluation of CR194AX in ICR mice
Sample preparation: An appropriate amount of CR194AX was weighed and dissolved in PBS, and an appropriate amount of alkaline solution was added to formulate a sample mother solution with a neutral pH, which was filtered and diluted with filtered PBS to a sample solution with a working concentration for later use.
Experimental design: ICR mice (female, 6-8 weeks old, weighing about 25 g) were randomly grouped according to body weight, and the administration was started on the first day of grouping. The dosage was adjusted according to the latest body weight of the mice, and the administration was performed via tail vein injection at an administration volume of 10 μl/g. After grouping and administration, the effects of the drugs on the normal behaviors of the animals, including the activity, food intake and drinking status, body weight, eyes, hair, feces, secretions and other abnormalities of the experimental animals, were tested. The body weight of the mice was measured twice a week and observed for 8 days after the last administration. At the end of the experiment, the liver and spleen were weighed, and the liver, spleen, lung, kidney and stomach were taken out and placed in 10% formalin neutral fixative for HE analysis. Sample preparation: An appropriate amount of the compound was weighed and dissolved in PBS, and an appropriate amount of alkaline solution was added to formulate a sample mother solution with a neutral pH, which was filtered and diluted with filtered physiological saline to a sample solution with a working concentration for later use.

Series [2] has as its system HEK293T-FOLR1 cells. In words: Cell expansion inhibition assay (CCK-8, 72 h), Table 3. The class given is cell-based, human. As to conditions: FOLR1 high expression. The protocol:
(§1) Cell lines: HEK293T-FOLR1 (a stably transformed cell line overexpressing FOLR1), SK-BR-3 (human breast cancer cell) and HEK293T (human embryonic kidney cell).
(§2) Main reagents: 1640 folic acid-free medium, fetal bovine serum, penicillin-streptomycin solution, L-glutamine and CCK8.
(§3) (1) Cell plating: Cells were prepared in advance, digested with Trypsin, collected and counted. A complete cell culture medium was used to dilute HEK293T-FOLR1 and HEK293T cells to 6×10^3 cells/ml, and dilute SK-BR-3 cells to 1.5×10^4 cells/ml. 100 μl of diluted cell solution was added to each well of 96-well plates, and negative and blank control wells were set on each plate. The 96-well plates added with the cells were placed in an incubator at 37° C., 5% CO2 for culturing overnight.
(§4) (2) Diluting and adding samples: The samples were serially diluted with medium (the starting concentration was 30 μM, 5-fold serial dilution), and a total of 10 concentration gradients were set. To each well of the 96-well plates that were cultured overnight, 50 μl of the diluted samples were added, with 3 replicate wells; negative controls and blank controls were set; and the plates were placed in an incubator at 37° C., 5% CO2 for culturing 72 h.
(§5) (3) Color development and reading plate: To each well, 15 μl (10% of the liquid volume in a well) of a color developing solution from CCK-8 was added; the plates were incubated at 37° C. for an appropriate time (try to keep the OD value in the range of 1.0-2.5); the covers of the 96-well plates were removed, and the plates were read at 450 nm on a microplate reader (Molecular Devices SpectraMax iD5).
(§6) (4) Data processing: The data was edited using SoftMax Pro 7.1 and a four-parameter fitting curve was plotted.

The test system of series [3] is SK-BR-3 cells. Described as above. Type of series: cell-based, human. As to conditions: FOLR1 low expression. The protocol:
as §1, §2, §3, §4, §5, §6

The subject of the next series is HEK293T cells. Described as above. As to conditions: no visible FOLR1 expression. Type of series: cell-based, human. The procedure: as §1, §2, §3, §4, §5, §6
A further series deals with MIA PaCa2 cells. Nature of the series: Cell expansion inhibition assay (CCK-8, 72 h), Table 4. Type of series: cell-based, human. As to conditions: without expression of FOLR1, read-out: MIAPACA-2 IC50. The protocol:
(§7) Cell lines: HEK293T-FOLR1 (a stably transformed cell line overexpressing FOLR1), SK-BR-3 (human breast cancer cell with low expression of FOLR1) and MIA PaCa2 (human pancreatic cancer cell without expression of FOLR1).
as §2
(§8) (1) Cell plating: Cells were prepared in advance, digested with Trypsin, collected and counted. A complete cell culture medium was used to dilute SK-BR-3 cells to 3.0×10^4 cells/ml, HEK293T-FOLR1 cells to 1.5×10^4 cells/ml, and MIA PaCa-2 cells to 2.0×10^4 cells/ml. 100 μl of diluted cell solution was added to each well of 96-well plates, and negative and blank control wells were set on each plate. The 96-well plates added with the cells were placed in an incubator at 37° C., 5% CO2 for culturing overnight.
as §4, §5, §6

Series [4] has as its system HEK293T-FOLR1 cells. The series is described as above. Type of series: cell-based, human. The protocol:
as §7, §2, §8, §4, §5, §6

In series [5] the test system is SK-BR-3 cells. The description is as above. Type of series: cell-based, human. The procedure:
as §7, §2, §8, §4, §5, §6

The mark [6] stands for this setting: 50 mg/kg, qw*3 and q3d*6, tail vein.

Structures are written as SMILES. Starred links: 1 amine or outer side, 2 acyl side, 3 side chain; linkers in the order of their positions; H or OH if unused. Residues, ends and D or L forms follow the SMILES beside them. *: point of attachment. X1 = CC[C@@]1(O)C(=O)OCc2c1cc1n(c2=O)Cc2c-1nc1cc(F)c(C)c3c1c2[C@@H](NC(=O)CNC(=O)[C@H](Cc1ccccc1)NC(=O)CNC(=O)CNC(=O)CCCCC(=O)*)CC3; Pteroyl = Nc1nc2ncc(CNc3ccc(C(=O)*)cc3)nc2c(=O)[nH]1; γGlu = O=C(O)[C@H](CCC(=O)[*:2])N[*:1]

Consider `CC[C@@]1(O)C(=O)OCc2c1cc1n(c2=O)Cc2c-1nc1cc(F)c(C)c3c1c2[C@@H](NC(=O)CNC(=O)[C@H](Cc1ccccc1)NC(=O)CNC(=O)CNC(=O)CCCCC(=O)NCCCC[C@H](NC(=O)[C@H](CS)NC(=O)CC[C@H](NC(=O)c1ccc(NCc2cnc4nc(N)nc(O)c4n2)cc1)C(=O)O)C(=O)N[C@@H](CCC(=O)O)C(=O)N[C@@H](Cc1ccccc1)C(=O)N[C@@H](CC(C)C)C(=O)N[C@@H](Cc1c[nH]cn1)C(=O)N1CCC[C@H]1C(=O)N[C@@H](CO)C(=O)N[C@@H](CCCCN)C(=O)N[C@H](C(=O)N[C@@H](CC(=O)O)C(=O)N[C@@H](CC(C)C)C(=O)N1CCC[C@H]1C(=O)N[C@@H](CCCNC(=N)N)C(=O)O)C(C)C)CC3` [CR194AX] ({Pteroyl-γGlu}-CK(X1)EFLHPSKVDLPR-OH), for which, in series [1] (25 mg/kg q3d*6, tail vein), the “average weight loss of the mice” value is listed as at most 5%, the “mortality during the administration” value is recorded as “no mice died” and the tolerance entry was “good tolerance”. In addition, in series [1] (setting [6]), the “average weight loss of the mice” value was at most 10%, the “mortality during the administration period” value is reported as “no mice died” and the tolerance entry is given as “good tolerance”. Moreover, the “weights of the liver and spleen compared with the negative control group” value in series [1] (each administration group, end of experiment) was “no significant difference”.
Take `CC[C@@]1(O)C(=O)OCc2c1cc1n(c2=O)Cc2c-1nc1cc(F)c(C)c3c1c2[C@@H](N)CC3` [Dx]: the IC50 in the series on HEK293T-FOLR1 cells [2] is 1.02 nM; with SK-BR-3 cells [3], 0.599 nM; in the series with HEK293T cells, 1.12 nM; in the series with MIA PaCa2 cells it was 5.53 nM; in the series on HEK293T-FOLR1 cells [4], 0.995 nM; in the series with SK-BR-3 cells [5] it was 0.569 nM.
For the molecule `CC[C@@]1(O)C(=O)OCc2c1cc1n(c2=O)Cc2c-1nc1cc(F)c(C)c3c1c2[C@@H](NC(=O)CO)CC3` [Dxd], the IC50 in the series on MIA PaCa2 cells amounted to 111 nM; in the series with HEK293T-FOLR1 cells [4] it was 1.68 nM.
As to `CCc1c2c(nc3ccc(O)cc13)-c1cc3c(c(=O)n1C2)COC(=O)[C@]3(O)CC` [SN38], the IC50 with MIA PaCa2 cells worked out at 7.03 nM; with HEK293T-FOLR1 cells [4] it was 0.943 nM; in the series on SK-BR-3 cells [5], 0.947 nM.
